Experiments:
[1] = Water wettability (wetness time) of tablet; format: physicochemical; details: 1000 kg/punch; for Wetness time, tablet obtained by compressing an excipient only: 300 mg tablet, flat punch 10 mm; for Wetness time, tablet obtained by compressing a mixture of an excipient and a water-insoluble polymer: 300 mg
Experimental: A water wettability (wetness time) of a tablet was measured in accordance with a known procedure [Chem. Pharm. Bull. 44 (1), 2121-2127 (1996)] as below. Specifically, purified water (6 mL) was put in a weighing dish, and thereon were placed quarto tissue papers (205 mm×120 mm, KimWipe S-200, manufactured by NIPPON PAPER CRECIA Co., LTD). The papers were entirely moistened, and then thereon was gently placed one tablet, and a wetness time required for entirely moistening the tablet was measured.

[2] = Hardness of tablet (tablet hardness tester); format: physicochemical; details: 1000 kg/punch; for Hardness, tablet obtained by compressing an excipient only: 300 mg tablet, flat punch 10 mm; for Hardness, tablet obtained by compressing a mixture of an excipient and a water-insoluble polymer: 300 mg
Experimental: A hardness of tablet was measured using a tablet hardness tester (manufactured by Schleuniger, type: 6D). The measurement was carried out thrice, and a hardness of tablet was obtained on an average thereof.

[3] = (*1) 97 parts excipient + 3 parts HPMC-AS HF
[4] = (*2) 90 parts excipient + 10 parts HPMC-AS HF

Wetness time, tablet obtained by compressing an excipient only [1]	Wetness time, tablet obtained by compressing a mixture of an excipient and a water-insoluble polymer [1, 3]	Hardness, tablet obtained by compressing an excipient only [2]	Hardness, tablet obtained by compressing a mixture of an excipient and a water-insoluble polymer [2, 3]	Wetness time, tablet obtained by compressing a mixture of an excipient and a water-insoluble polymer [1, 4]	Hardness, tablet obtained by compressing a mixture of an excipient and a water-insoluble polymer [2, 4]	Compound
18 s	43 (*1) seconds	12 N	53 (*1) N			OC[C@@H](O)[C@@H](O)[C@H](O)[C@H](O)CO [D-mannitol]
		<4 N		37 (*2) seconds	23 (*2) N	OC[C@@H](O)[C@@H](O)CO [Erythritol]
3 s		41 N				OC[C@H]1O[C@@](CO)(O[C@H]2O[C@H](CO)[C@@H](O)[C@H](O)[C@H]2O)[C@@H](O)[C@@H]1O [Purified sucrose]
>300 s	>300 (*1) seconds	229 N	207 (*1) N			OC[C@@H](O)[C@@H](O)[C@H](O)[C@@H](O)CO [Sorbitol]
3 s		12 N		74 (*2) seconds	38 (*2) N	OC[C@@H](O)[C@H](O)[C@@H](O)CO [Xylitol]

— patent US20110229570A1, “ORALLY RAPIDLY DISINTEGRATING TABLET AND PROCESS FOR PRODUCING SAME” (priority 2008, published 2011)
